Data taken from patent US20180051132A1, “ELASTOMER COUPLED WITH BIOACTIVE FATTY ACID” (University of Pittsburgh - Of the Commonwealth System of …, priority 2016, published 2018).

Tested on: sheep vascular endothelial cell (SVEC)
Assay: SVEC proliferation/cytotoxicity, CellTiterBlue assay
Format: cell-based
Conditions: without growth factors
Experimental: The cell media used was the EGM-2 Bullet Kit (CC-3162) from Lonza. It consists of 500 mL of basal media, antibiotics GA-1000 (Gentamicin, Amphotecerin-B), FBS (Fetal Bovine Serum) 10 mL, and a kit of growth factors (VEGF, hFGF-B, R3-IGF-1, Ascorbic Acid, Heparin). • In vitro viability assay:Live/dead assay • In vitro cytotoxicity(biocompatibility)/proliferation assay: CellTiterBlue® assay • This in vitro test was to find the optimal linoleic acid content in the material. Cells were cultured in different concentration of LA. […]
The fluorescence of live cells were measured at three time points:1, 3, 5 days. […] Fluorescence was recorded triple times for each well at 560 nm/590 nm excitation/emission.

Which results are given for `CCCCC/C=C\C/C=C\CCCCCCCC(=O)O` [LA, linoleic acid]?
SVEC proliferation (36 nM LA): higher proliferation than the cells in the positive control medium; SVEC proliferation (360 nM LA): higher proliferation than the cells in the positive control medium
